Data on 1 molecule can be found in ChEMBL document CHEMBL1158880, “New cembranoid diterpenes and a geranylgeraniol derivative from the common Caribbean sea whip Eunicea succinea” (1997).

Common to all, as to format: functional
The subject of test [1] is M14. The test is described as follows: Cytotoxicity against human M14 cells.
Test [2] in a line: Cytotoxicity against human Hs 578T cells.
In test [3] the test system is SNB-75. The test is described as follows: Cytotoxicity against human SNB75 cells.

For the molecule `C=C(C)[C@H]1CC/C(C)=C/CC[C@@]2(C)O[C@@H]2CC/C(COC(C)=O)=C\[C@@H]1O` [ASPERDIOL ACETATE], the GI50 in test [1] was determined as 8.28 µM; in test [2], 8.28 µM; in test [3], 0.625 µM.

The term GI50 denotes the concentration that inhibits growth by half. The low end stands for more potent growth inhibition, the high end for less potent growth inhibition.
